Patent publication US7507739B2, “6-[(substituted)phenyl]triazolopyrimidines as anticancer agents” (Wyeth, priority 2003, dated 2009)

Assays:
HeLa cells = experiment: Cell cycle analysis with HeLa cells; type: cell-based, human; conditions: 18 hr
Experimental: HeLa cells are harvested by trypsinization, washed, counted and distributed to wells of 12-well plates at 125,000 cells per well in 2 mL medium. Cells are cultured overnight. […] Cells are continued in culture for 18 hr after compound addition, then cells in each well are harvested (taking care to recover both adherent and non-adherent cells) and processed using the CycleTEST PLUS kit (Becton Dickinson Immunocytometry Systems, San Jose, Calif.). Flow cytometry is done with a FACSort instrument (Becton Dickinson).
This procedure measures the percentages of cells in a population that are in the G1, S, and G2/M phases of the cell cycle. It utilizes staining of cell nuclei with propidium iodide and analysis by flow cytometry.

COLO 205 cells = experiment: MTS cytotoxicity test with COLO 205 cells; type: cell-based, human; conditions: Homo sapiens, COLO 205, 72 h, 3 days
Experimental: The assay, which is sold in kit form by Promega (Madison, Wis.; CellTiter 96 AQueous Non-Radioactive Cell Proliferation Assay), is based on the conversion by viable cells, but not by dead cells, of the tetrazolium salt, MTS (3-(4,5-dimethylthiazol-2-yl)-5-(3-carboxymethoxyphenyl)-2-(4-sulphophenyl)-2H-tetrazolium, inner salt), into a water-soluble colored formazan which is detected by spectrophotometry. Compounds are tested at nine concentrations, in order to determine IC50 values. For the test procedure, cells are harvested by trypsinization (or, in the case of non-adherent cells, by simple resuspension), washed, counted and distributed to wells of 96-well flat-bottom microtiter plates at 1000 cells per well in 200 μL of medium. In addition, one row of wells on a separate plate received cells as above (“time 0” plate). All plates are incubated at 37° in humidified 5% CO2 in air for about 24 hr.
On day 2, compounds for test are diluted and added to wells. Compounds are dissolved in DMSO at 10 mg/mL. For each compound, nine serial 2-fold dilutions are prepared in DMSO. Ten μL of each dilution in DMSO is transferred to 100 μL of medium, mixed well, and then 5 μL of this dilution is transferred in quadruplicate to wells containing cells. The final high concentration of each compound is typically 5 μM. Plates are returned to the incubator for three days. At the time of drug addition to the experimental plates, the MTS assay is run on the “time 0” plate. This produced the “time 0 MTS value” which is related to the number of viable cells per well at the time of drug addition.
After three days of culture with test compounds (day 5 overall), the MTS assay is done on all wells of the experimental plates. The absorbance values of the quadruplicate sample wells are averaged and divided by the average of the “time 0” values. The average of control wells without drug, divided by the average “time 0” value, gave the maximal relative increase in MTS color yield due to cell growth during the final three days of culture. The average of control wells with high drug concentration, divided by the “time 0” value, gave the minimal relative color yield for cells that are completely killed. The nine values for each compound are plotted against concentration, and the concentration that produced a relative color yield half way between the maximum and minimum is taken as the IC50 value.
COLO 205 is a human colon carcinoma cell line that is used for comparative testing of the examples of this invention and several reference compounds. This line is sensitive to paclitaxel and vincristine.

COc1cc2c(c(OC)c1OC)-c1ccc(OC)c(=O)cc1[C@@H](NC(C)=O)CC2 [Colchicine, reference compound]
Percent in Cell Cycle Phase >4N (HeLa cells; 5 nM): 2%
Percent in Cell Cycle Phase Apop (HeLa cells; 5 nM): 6%
Percent in Cell Cycle Phase G1 (HeLa cells; 5 nM): 60%
Percent in Cell Cycle Phase G2/M (HeLa cells; 5 nM): 16%
Percent in Cell Cycle Phase S (HeLa cells; 5 nM): 17%
Percent in Cell Cycle Phase >4N (HeLa cells; 10 nM): 2%
Percent in Cell Cycle Phase Apop (HeLa cells; 10 nM): 7%
Percent in Cell Cycle Phase G1 (HeLa cells; 10 nM): 59%
Percent in Cell Cycle Phase S (HeLa cells; 10 nM): 16%
Percent in Cell Cycle Phase >4N (HeLa cells; 15 nM): 2%
Percent in Cell Cycle Phase Apop (HeLa cells; 15 nM): 9%
Percent in Cell Cycle Phase G1 (HeLa cells; 15 nM): 50%
Percent in Cell Cycle Phase G2/M (HeLa cells; 15 nM): 23%
Percent in Cell Cycle Phase S (HeLa cells; 15 nM): 17%
Percent in Cell Cycle Phase >4N (HeLa cells; 17.5 nM): 2%
Percent in Cell Cycle Phase Apop (HeLa cells; 17.5 nM): 9%
Percent in Cell Cycle Phase G1 (HeLa cells; 17.5 nM): 51%
Percent in Cell Cycle Phase G2/M (HeLa cells; 17.5 nM): 21%
Percent in Cell Cycle Phase >4N (HeLa cells; 20 nM): 2%
Percent in Cell Cycle Phase Apop (HeLa cells; 20 nM): 13%
Percent in Cell Cycle Phase G1 (HeLa cells; 20 nM): 40%
Percent in Cell Cycle Phase G2/M (HeLa cells; 20 nM): 28%
Percent in Cell Cycle Phase >4N (HeLa cells; 25 nM): 3%
Percent in Cell Cycle Phase Apop (HeLa cells; 25 nM): 14%
Percent in Cell Cycle Phase G1 (HeLa cells; 25 nM): 36%
Percent in Cell Cycle Phase G2/M (HeLa cells; 25 nM): 27%
Percent in Cell Cycle Phase S (HeLa cells; 25 nM): 20%
Percent in Cell Cycle Phase >4N (HeLa cells; 30 nM): 3%
Percent in Cell Cycle Phase Apop (HeLa cells; 30 nM): 14%
Percent in Cell Cycle Phase G1 (HeLa cells; 30 nM): 27%
Percent in Cell Cycle Phase G2/M (HeLa cells; 30 nM): 36%
Percent in Cell Cycle Phase S (HeLa cells; 30 nM): 20%
Percent in Cell Cycle Phase >4N (HeLa cells; 40 nM): 4%
Percent in Cell Cycle Phase Apop (HeLa cells; 40 nM): 11%
Percent in Cell Cycle Phase G1 (HeLa cells; 40 nM): 16%
Percent in Cell Cycle Phase G2/M (HeLa cells; 40 nM): 48%
Percent in Cell Cycle Phase S (HeLa cells; 40 nM): 22%
Percent in Cell Cycle Phase >4N (HeLa cells; 50 nM): 4%
Percent in Cell Cycle Phase Apop (HeLa cells; 50 nM): 11%
Percent in Cell Cycle Phase G1 (HeLa cells; 50 nM): 11%
Percent in Cell Cycle Phase G2/M (HeLa cells; 50 nM): 56%
Percent in Cell Cycle Phase >4N (HeLa cells; 100 nM): 3%
Percent in Cell Cycle Phase Apop (HeLa cells; 100 nM): 15%
Percent in Cell Cycle Phase G1 (HeLa cells; 100 nM): 11%
Percent in Cell Cycle Phase G2/M (HeLa cells; 100 nM): 55%
Percent in Cell Cycle Phase S (HeLa cells; 100 nM): 16%

C[C@H](Nc1c(-c2c(F)ccc(OCCCN(C)C)c2F)c(Cl)nc2ncnn12)C(F)(F)F [Example 28, 5-Chloro-6-{3-[3-(dimethylamino)propoxy]-2,6-difluorophenyl}-N-[(1S)-2,2,2-trifluoro-1-methylethyl][1,2,4]triazolo[1,5-a]pyrimidin-7-amine]
IC50 (COLO 205 cells): 785 nM

C[C@H](Nc1c(-c2c(F)ccc(OCCN(C)C)c2F)c(Cl)nc2ncnn12)C(F)(F)F [Example 27, 5-Chloro-6-{3-[2-(dimethylamino)ethoxy]-2,6-difluorophenyl}-N-[(1S)-2,2,2-trifluoro-1-methylethyl][1,2,4]triazolo[1,5-a]pyrimidin-7-amine]
IC50 (COLO 205 cells): 1570 nM

C[C@H](Nc1c(-c2c(F)cc(OCCCCO)cc2F)c(Cl)nc2ncnn12)C(F)(F)F [Example 21, 4-[4-(5-Chloro-7-{[(1S)-2,2,2-trifluoro-1-methylethyl]amino}[1,2,4]triazolo[1,5-a]pyrimidin-6-yl)-3,5-difluorophenoxy]butan-1-ol]
IC50 (COLO 205 cells): 151 nM
